According to patent publication US20250129074A1, “CHIMERIC COMPOUND FOR TARGETED DEGRADATION OF ANDROGEN RECEPTOR PROTEIN, PREPARATION METHOD THEREFOR, AND MEDICAL USE THEREOF” (Jiangsu Hengrui Pharmaceuticals Co., Ltd., priority 2021, published 2025):

Tests used:
[1] = system: LNCap-FGC xenograft tumors; test: Pharmacodynamic testing: LNCap-FGC subcutaneous xenograft in castrated CB17-SCID mice; type: in vivo; conditions: i.g.; for Mean tumor volume D 21 / Number of remaining animals/group / TGI D 21: qd/21 d
Excerpt: To evaluate the inhibition of the growth of castration-resistant prostate cancer LNCap-FGC subcutaneous xenograft tumors in male CB17-SCID mice by compounds of the present disclosure.
Test animals: CB17-SCID male mice, purchased from Beijing Vital River Laboratory Animal Technology Co., Ltd. (certificate No. SCXK(Beijing)2016-0006; animal certification No. 110011220107542683), weighing about 20.54-26.72 g on purchase. Housing conditions: 5 animals/cage, a 12/12-hour light/dark cycle, a constant temperature of 23±1° C. with humidity at 50 to 60%, ad libitum access to food and water.
0.2 mL (10×10^6 cells+Matrigel) of LNCaP FGC cells (Matrigel was added, in a 1:1 ratio by volume) in the logarithmic growth phase was subcutaneously inoculated into the right upper limb of each mouse. When the mean tumor volume reached 77 mm^3, male mice with stable tumor growth were selected and subjected to orchiectomy followed by three days of analgesic care. When the mean tumor volume reached 172 mm^3, grouping and administration were started. The day of grouping was defined as DO, and intragastric administration was started and performed once a day for 21 days. The 21th day after administration was defined as D21 (Table 7). For tumor-bearing mice, the tumor volume was measured with a vernier caliper and the body weight was measured with a balance twice a week, and data were recorded.
All data were plotted and statistically analyzed using Excel and GraphPad Prism 8 software.
The calculation formula for tumor volume (V) was: V=½×a×b^2, where a and b represent length and width, respectively.
Relative tumor proliferation rate T/C(%)=(T-T0)/(C-C0)×100 (%), where T and C represent the tumor volumes of a treatment group and the control group at the end of the experiment; T0 and C0 represent the tumor volumes at the beginning of the experiment.

[2] = Pharmacokinetic evaluation in SD rats; conditions: both sexes, rat, in vivo, po, i.g., 2.0 mg/kg; for Vd/F: read-out: Apparent distribution volume Vz/F; for AUC(0-t): read-out: Area under curve AUC0-t; for CL/F: read-out: Clearance rate CL/F; for half-life: read-out: Half-life T½ (converted); for Cmax: read-out: Plasma concentration Cmax
Procedure: SD rats were used as test animals.
32 SD rats, provided by Vital River Laboratory Animal Co., Ltd., with an equal number of males and females, were evenly divided into 8 groups. The animals were fasted overnight and then intragastrically dosed.
The dose administered was 2.0 mg/kg, and the volume was 10.0 mL/kg.
The procedure starting from the blood collection to the centrifugation was performed under ice-bath conditions. Access to food was given 2 hours after administration.

[3] = system: LNCaP cells; test: Inhibition of LNCaP proliferation (CellTiter-Glo); type: cell-based; conditions: Homo sapiens, 144 h, 0.1 nM R1881, six days; for Emax: read-out: Max (maximum proliferation inhibition rate)
Procedure: The plate was incubated in a 37° C., 5% CO2 cell incubator for three days. […] A blank control cell well containing 0.5% DMSO and a cell-free vehicle control well were set up. The plate was incubated in a 37° C., 5% CO2 cell incubator for six days.

[4] = molecular target: T1, androgen receptor (AR) (Homo sapiens, UniProt P10275, T878A); test: Degradation activity on androgen receptor in LNCaP cells (AR ELISA); type: cell-based; conditions: 0.1 nM R1881, 24 hours; for DC50: read-out: LNCaP DC50; for Dmax: read-out: Max (maximum AR degradation rate)
T1 construct: host or cells: LNCaP human prostate cancer cells
T1 sequence (P10275 1-920 T878A): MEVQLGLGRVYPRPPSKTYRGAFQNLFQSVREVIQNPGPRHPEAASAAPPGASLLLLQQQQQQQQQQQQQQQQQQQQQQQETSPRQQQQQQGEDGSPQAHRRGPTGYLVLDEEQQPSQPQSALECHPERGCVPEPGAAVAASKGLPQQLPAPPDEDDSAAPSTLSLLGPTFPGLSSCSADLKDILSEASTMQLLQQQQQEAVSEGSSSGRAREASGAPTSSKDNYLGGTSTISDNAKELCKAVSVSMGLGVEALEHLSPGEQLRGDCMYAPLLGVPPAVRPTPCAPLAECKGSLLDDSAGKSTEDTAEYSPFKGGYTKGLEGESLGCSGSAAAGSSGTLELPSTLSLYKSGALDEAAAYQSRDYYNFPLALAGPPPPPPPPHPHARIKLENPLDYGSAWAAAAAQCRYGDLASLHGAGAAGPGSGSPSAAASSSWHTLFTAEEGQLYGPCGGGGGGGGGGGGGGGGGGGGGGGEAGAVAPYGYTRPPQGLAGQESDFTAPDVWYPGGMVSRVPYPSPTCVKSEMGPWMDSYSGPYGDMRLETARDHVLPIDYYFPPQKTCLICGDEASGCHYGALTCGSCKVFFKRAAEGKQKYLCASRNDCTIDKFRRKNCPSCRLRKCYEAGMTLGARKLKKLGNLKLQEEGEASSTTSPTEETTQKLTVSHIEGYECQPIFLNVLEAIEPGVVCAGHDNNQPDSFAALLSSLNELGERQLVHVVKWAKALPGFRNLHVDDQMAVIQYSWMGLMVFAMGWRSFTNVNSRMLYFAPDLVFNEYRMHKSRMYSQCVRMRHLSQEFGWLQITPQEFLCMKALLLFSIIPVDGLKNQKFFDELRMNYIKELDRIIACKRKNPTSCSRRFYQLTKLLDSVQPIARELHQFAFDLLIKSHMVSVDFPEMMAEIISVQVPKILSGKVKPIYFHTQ
Method in brief: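 LNCaP cells were treated with compound, with a 0.5% DMSO blank control, for 24 h at 37 °C, 5% CO2. Cells were then lysed and the lysate clarified. AR protein level was read by ELISA.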

Row | SMILES | Vd/F [2] [L/kg] | AUC(0-t) [2] [ng·h/mL] | CL/F [2] [mL/min/kg] | half-life [2] [h] | Cmax [2] [ng/mL] | IC50 [3] [nM] | Emax [3] [%] | DC50 [4] [nM] | Dmax [4] [%] | also measured
1 | N#Cc1ccc(O[C@H]2CC[C@H](NC(=O)c3ccc(N4CCC(CN5CCN(c6cc7c(cc6F)C(=O)N(C6CCC(=O)NC6=O)C7=O)CC5)CC4)nn3)CC2)cc1Cl (stereo partly shown) [ARV-110, reference compound] |  |  |  |  |  |  |  |  |  | Mean tumor volume D 21 ([1]; 1 mpk): 789 mm^3; Number of remaining animals/group ([1]; 1 mpk): 8/8; TGI D 21 ([1]; 1 mpk): 57%; Mean tumor volume D 21 ([1]; 10 mpk): 293 mm^3; Number of remaining animals/group ([1]; 10 mpk): 8/8; TGI D 21 ([1]; 10 mpk): 92%
2 | C[C@H]1CC2(CCN(c3ccc(C(=O)N4CCC5(CC4)CC(N4CCN(c6ccc(N7CCC(=O)NC7=O)cc6)CC4)C5)cc3)CC2)CN1c1ccc(C#N)c(Cl)c1 [Example 28, (S)-2-Chloro-4-(8-(4-(2-(4-(4-(2,4-dioxotetrahydropyrimidin-1(2H)-yl)phenyl)piperazin-1-yl)-7-azaspiro[3.5]nonane-7-carbonyl)phenyl)-3-methyl-2,8-diazaspiro[4.5]decan-2-yl)benzonitrile] | 66.6 | 315 | 108 | 7.17 | 25.5 | 17 | 61 | 5.8 | 97 | 
3 | C[C@H]1CC2(CCN(c3ccc(C(=O)N4CCC(CN5CCN(c6cccc(N[C@H]7CCC(=O)NC7=O)c6)CC5)CC4)cc3F)CC2)CN1c1ccc(C#N)c(Cl)c1 [Example 15-1, 2-Chloro-4-((S)-8-(4-(4-((4-(3-(((S)-2,6-dioxopiperidin-3-yl)amino)phenyl)piperazin-1-yl)methyl)piperidine-1-carbonyl)-2-fluorophenyl)-3-methyl-2,8-diazaspiro[4.5]decan-2-yl)benzonitrile] |  |  |  |  |  |  |  |  |  | effect on the body weight of the mice ([1]; 1.5, 5 and 15 mpk, once daily for 21 days): little effect; Mean tumor volume D 21 ([1]; 1.5 mpk): 255 mm^3; Number of remaining animals/group ([1]; 1.5 mpk): 8/8; TGI D 21 ([1]; 1.5 mpk): 94%; Mean tumor volume D 21 ([1]; 5 mpk): 188 mm^3; Number of remaining animals/group ([1]; 5 mpk): 8/8; TGI D 21 ([1]; 5 mpk): 99%; Mean tumor volume D 21 ([1]; 15 mpk): 117 mm^3; Number of remaining animals/group ([1]; 15 mpk): 8/8; TGI D 21 ([1]; 15 mpk): 104%
4 | C[C@H]1CC2(CCN(c3ccc(C(=O)N4CCC(CN5CCN(c6cccc(NC7CCC(=O)NC7=O)c6)CC5)CC4)cc3)CC2)CN1c1ccc(C#N)c(Cl)c1 (stereo partly drawn) [Example 11, 2-Chloro-4-((3S)-8-(4-(4-((4-(3-((2,6-dioxopiperidin-3-yl)amino)phenyl)piperazin-1-yl)methyl)piperidine-1-carbonyl)phenyl)-3-methyl-2,8-diazaspiro[4.5]decan-2-yl)benzonitrile] | 34.8 | 644 | 60.2 | 6.75 | 69.4 | 82 | 68 | 7.3 | 98 | 
